Where two headings read alike, the source gives them in different places. Values belong to the compound of their own block, whether it stands above or below them.
Key:
human A2AAR [1] = target: T1, human A2AAR (Homo sapiens, UniProt P29274); parameters: expressed in transfected cells; settings: cited from earlier work
[2] = target: T2, hAR subtype A2A in HEK293 cells (Homo sapiens, UniProt P29274); experiment: Functional cAMP assay, A2AAR; type: cell-based; settings: for Emax at 10 µM: HEK293, stimulation of cAMP production at 10 μM, n=3, read-out: Maximum efficacy A2A (% activation); for A2AAR agonist activity in words: Gs-mediated cAMP production
T2 construct: expressed in transfected cells
T2 sequence (P29274 whole entry): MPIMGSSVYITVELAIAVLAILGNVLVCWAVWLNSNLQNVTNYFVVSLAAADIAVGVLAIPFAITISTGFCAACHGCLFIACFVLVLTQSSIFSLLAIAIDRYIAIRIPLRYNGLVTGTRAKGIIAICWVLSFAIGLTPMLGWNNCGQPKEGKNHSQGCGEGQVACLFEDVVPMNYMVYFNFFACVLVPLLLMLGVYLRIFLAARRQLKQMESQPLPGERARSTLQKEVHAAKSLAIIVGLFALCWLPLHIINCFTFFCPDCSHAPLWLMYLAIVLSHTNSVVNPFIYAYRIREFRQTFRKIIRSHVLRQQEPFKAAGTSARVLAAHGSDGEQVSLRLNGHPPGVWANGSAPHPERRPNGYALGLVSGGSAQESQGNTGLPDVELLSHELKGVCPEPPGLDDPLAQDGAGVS

human A3AR [3] = target: T3, human A3AR (Homo sapiens, UniProt P0DMS8); parameters: expressed in transfected cells; method as in Rodriguez et al.3; settings: ref Rodriguez et al.3; cited from earlier work
T3 sequence (P0DMS8 1-318): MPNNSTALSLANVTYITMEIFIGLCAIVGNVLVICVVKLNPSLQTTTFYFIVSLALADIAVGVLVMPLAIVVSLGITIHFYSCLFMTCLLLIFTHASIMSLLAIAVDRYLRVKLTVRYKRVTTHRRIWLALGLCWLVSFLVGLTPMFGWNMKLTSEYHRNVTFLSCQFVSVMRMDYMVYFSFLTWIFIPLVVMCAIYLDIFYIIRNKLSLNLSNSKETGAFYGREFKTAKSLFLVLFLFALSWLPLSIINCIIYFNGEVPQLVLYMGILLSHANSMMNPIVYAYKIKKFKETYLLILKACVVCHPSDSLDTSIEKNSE

human A2AAR [4] = target: T1, human A2AAR; experiment: Radioligand binding assay, A2AAR; settings: for A2AAR activity class (Active/Inactive) in Fig. 2: summary of binding and functional data
human A2BAR = target: T4, human A2BAR (Homo sapiens, UniProt P29275); experiment: Radioligand binding assay, A2BAR; settings: read-out: % Inhibition at 10µM A2B
T4 sequence (P29275 1-332): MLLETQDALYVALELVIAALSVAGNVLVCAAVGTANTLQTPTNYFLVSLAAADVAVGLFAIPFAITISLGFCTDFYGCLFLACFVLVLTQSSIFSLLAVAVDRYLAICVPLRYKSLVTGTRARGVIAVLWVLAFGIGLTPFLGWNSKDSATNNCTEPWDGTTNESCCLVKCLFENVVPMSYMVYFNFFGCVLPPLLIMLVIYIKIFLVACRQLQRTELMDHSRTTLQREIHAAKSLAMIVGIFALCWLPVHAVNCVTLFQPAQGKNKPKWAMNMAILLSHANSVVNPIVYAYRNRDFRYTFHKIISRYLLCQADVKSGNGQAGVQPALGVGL

human A3AR [5] = target: T3, human A3AR; experiment: Radioligand binding assay, A3AR
human A1AR = target: T5, human A1AR (Homo sapiens, UniProt P30542); experiment: Radioligand binding assay, A1AR
T5 sequence (P30542 1-326): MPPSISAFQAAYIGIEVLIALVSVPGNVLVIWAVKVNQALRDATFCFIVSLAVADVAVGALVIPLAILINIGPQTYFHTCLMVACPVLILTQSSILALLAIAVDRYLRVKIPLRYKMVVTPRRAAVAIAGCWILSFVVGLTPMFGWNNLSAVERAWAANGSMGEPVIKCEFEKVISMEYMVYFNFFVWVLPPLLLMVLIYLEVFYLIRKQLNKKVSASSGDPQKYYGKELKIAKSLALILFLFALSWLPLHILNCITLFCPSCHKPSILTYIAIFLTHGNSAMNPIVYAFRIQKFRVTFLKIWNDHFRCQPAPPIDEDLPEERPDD

[6] = target: T6, hAR subtype A3 in HEK293 cells (Homo sapiens, UniProt P0DMS8); experiment: Functional cAMP assay, A3AR; type: cell-based
T6 construct: expressed in transfected cells
T6 sequence (P0DMS8 1-318): T3 sequence (P0DMS8 1-318)

[7] = target: T7, hAR subtype A2B in HEK293 cells (Homo sapiens, UniProt P29275); experiment: Functional cAMP assay, A2BAR; type: cell-based
T7 construct: expressed in transfected cells
T7 sequence (P29275 1-332): T4 sequence (P29275 1-332)

adenosine deaminase = experiment: A2AAR activity in absence and presence of adenosine deaminase; type: in vitro ADME; settings: concluded qualitatively from A2AAR activity without and with adenosine deaminase
Experimental: For compounds 3 and 4, both binding and functional assays at the A2AAR were carried out (Fig. 2). Experiments were also performed for the A1, A2B, and A3 subtypes (Fig. S1 and Table S1 ^†).

[8] = target: T8, hAR subtype A1 in HEK293 cells (Homo sapiens, UniProt P30542); experiment: Functional cAMP assay, A1AR; type: cell-based
T8 sequence (P30542 1-326): T5 sequence (P30542 1-326)

T1 sequence (P29274 whole entry): as the sequence (P29274 whole entry) above

Emax at 10 µM [2]: 20 ± 4%
Structure (SMILES): Nc1nccc2c1ncn2[C@@H]1O[C@H](CO)[C@@H](O)[C@H]1O [Compound 2, 3-deazaadenosine]
% Inhibition at 10µM A2A (human A2AAR [1]; 10 µM, ref Rodriguez et al.3): 24 ± 8%
A2AAR activity class (Active/Inactive) in Fig. 2 (human A2AAR [1]; summary of binding and functional data): Inactive
Ki (human A2AAR [1]; very low affinity): 39000 nM
% Inhibition at 10µM A3 (human A3AR [3]): 53 ± 11%

% Inhibition at 10µM A2A (human A2AAR [4]; 10 µM, radioligand binding, n=3): did not show significant displacement
inhibition at 10 µM (human A2AAR [4]; read-out: % Inhibition at 10µM A2A): 13 ± 1%
A2AAR activity class (Active/Inactive) in Fig. 2 (human A2AAR [4]): Inactive
inhibition at 10 µM (human A2BAR): 1 ± 1%
inhibition at 10 µM (human A3AR [5]; read-out: % Inhibition at 10µM A3): 50 ± 2%
A2AAR agonist activity in words [2]: inactive
Emax at 10 µM [2]: 9 ± 1%
inhibition at 10 µM (human A1AR; read-out: % Inhibition at 10µM A1): 48 ± 17%
Structure (SMILES): Cc1cnc(N)c2ncn(C3OC(CO)C(O)C3O)c12 (stereo not drawn) [Compound 3]

Ki (human A2AAR [4]): 103 nM
A2AAR activity class (Active/Inactive) in Fig. 2 (human A2AAR [4]): Active
inhibition at 10 µM (human A2BAR): 29 ± 7%
activation of A3 subtype in words [6]: activated
EC50 ([6]; cAMP, HEK293, n=3): 318 ± 66 nM
Emax ([6]; cAMP, HEK293, n=3, read-out: Maximum efficacy A3): 97 ± 4%
activation of A2BAR in words [7]: not
Emax ([7]; cAMP, HEK293, n=3, read-out: Maximum efficacy A2B): < 15%
Ki (human A3AR [5]): 280 ± 27 nM
resistance to degradation by adenosine deaminase (adenosine deaminase): resistance
A2AAR agonist activity in words [2]: full agonist
Emax at 10 µM [2]: 99 ± 3%
EC50 ([2]; cAMP production, HEK293, n=3): 732 nM
Ki (human A1AR): 31 ± 4 nM
activation of A1 subtype in words [8]: activated
EC50 ([8]; cAMP, HEK293, n=3): 180 ± 38 nM
Emax ([8]; cAMP, HEK293, n=3, read-out: Maximum efficacy A1): 101 ± 3%
Structure (SMILES): Nc1ncc(CO)c2c1ncn2C1OC(CO)C(O)C1O (stereo not drawn) [Compound 4]

Reference: paper PMC8179138, “Ligand design by targeting a binding site water” (Chemical Science, 2020)
